Source: patent US5700682A, “Mechanism based screen for retinoid X receptor agonists and antagonists” (American Cyanamid Company, priority 1995, dated 1997)

target: T1, RXRα (Homo sapiens, UniProt P19793); experiment: Plate assay (X-GAL, blue halo) as a screen to detect RXRα agonists; type: cell-based; details: discs containing hormone on agar plate with X-GAL; FIG. 7
T1 construct: reporter YRpA: two apoAI site A copies-CYC1-lacZ
T1 sequence (P19793 1-462): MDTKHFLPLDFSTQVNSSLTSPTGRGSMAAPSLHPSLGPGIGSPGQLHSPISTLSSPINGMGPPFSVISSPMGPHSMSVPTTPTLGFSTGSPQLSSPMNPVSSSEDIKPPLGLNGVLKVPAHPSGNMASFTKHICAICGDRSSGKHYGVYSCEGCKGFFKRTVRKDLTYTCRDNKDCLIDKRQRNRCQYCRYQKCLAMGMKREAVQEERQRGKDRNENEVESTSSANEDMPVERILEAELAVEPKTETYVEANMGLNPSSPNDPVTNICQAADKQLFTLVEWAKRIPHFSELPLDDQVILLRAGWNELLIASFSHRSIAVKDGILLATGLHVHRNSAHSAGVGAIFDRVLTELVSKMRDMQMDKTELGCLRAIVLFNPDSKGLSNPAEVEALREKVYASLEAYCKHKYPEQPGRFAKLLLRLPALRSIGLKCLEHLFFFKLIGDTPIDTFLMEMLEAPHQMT
Excerpt: Yeast cells containing the RXRα expression plasmid and the reporter construct are inoculated in Yeast media containing the chromogenic substrate, X-GAL® (a registered trademark of 5-bromo-4-chloro-3-indolyl-β-D-galactopyranoside, commercially available from Gibco BRL, Bethesda, Md.).
To identify nontoxic ligands of RXRα, the present invention includes a novel screen for detecting compounds having retinoid X receptor agonist or antagonist activity by the following steps: (1) Providing a yeast strain which expresses the […] and activates the reporter plasmid containing apoAI gene site A or a mutated variant thereof; (2) incubating the compound in suitable media and a colorless chromogenic substrate; and (3) examining the media for development of color. FIG. 7 illustrates the screen as a plate assay which detects RXRα agonists. Yeast cells containing the RXRα expression plasmid and the reporter construct are inoculated in yeast media containing the chromogenic substrate, X-GAL® (a registered trademark of 5-bromo-4-chloro-3-indolyl-β-D-galactopyranoside, commercially available from Gibco BRL, Bethesda, Md.). Other well-known chromogenic substrates may substitute for X-GAL®. Then, discs containing different test compounds may be placed on top of the agar plate. Induction of the reporter enzyme by the ligands of RXRα is reflected by the formation of a color.

Structure (SMILES)	Induction of the reporter enzyme as reflected by formation of the blue halo
C[C@]12CCC(=O)C=C1CC[C@@H]1[C@@H]2C(=O)C[C@@]2(C)[C@H]1CC[C@]2(O)C(=O)CO [cortisone]	observed for 9-cis retinoic acid and all-trans-retinoic acids only
CC(=O)[C@H]1CC[C@H]2[C@@H]3CCC4=CC(=O)CC[C@]4(C)[C@H]3CC[C@]12C [progesterone]	observed for 9-cis retinoic acid and all-trans-retinoic acids only
C[C@]12CC[C@H]3[C@@H](CCC4=CC(=O)CC[C@@]43C)[C@@H]1CC[C@@H]2O [testosterone]	observed for 9-cis retinoic acid and all-trans-retinoic acids only
CC(C)(O)CC[C@@H](O)[C@](C)(O)[C@H]1CC[C@@]2(O)C3=CC(=O)[C@@H]4C[C@@H](O)[C@@H](O)C[C@]4(C)[C@H]3CC[C@]12C [20-hydroxyecdysone]	observed for 9-cis retinoic acid and all-trans-retinoic acids only

system: RXRα binding to the apoAI gene site A; experiment: not given; details: reticulocyte lysates; cited from earlier work

Structure (SMILES)	Binding of in vitro translated RXRα to apoAI gene site A on supplementing lysates with ligand
CC1=C(/C=C/C(C)=C/C=C/C(C)=C/C(=O)O)C(C)(C)CCC1 [all-trans-RA, all-trans-retinoic acid]	to the lesser extent
CC1=C(/C=C/C(C)=C\C=C\C(C)=C\C(=O)O)C(C)(C)CCC1 [9-cis-RA, 9-cis-retinoic acid]	does not bind to the apoAI gene site A unless these lysates are supplemented
